This note sets out measurements from BindingDB's records for doi:10.1016/j.bmcl.2016.06.017 (University of Pittsburgh, 2016).

pIC50: −log10 of the molar value.

Test [1] has as its target T1, Signal transducer and activator of transcription 1-alpha/beta (Homo sapiens, UniProt P42224).
T1 sequence (P42224 whole entry): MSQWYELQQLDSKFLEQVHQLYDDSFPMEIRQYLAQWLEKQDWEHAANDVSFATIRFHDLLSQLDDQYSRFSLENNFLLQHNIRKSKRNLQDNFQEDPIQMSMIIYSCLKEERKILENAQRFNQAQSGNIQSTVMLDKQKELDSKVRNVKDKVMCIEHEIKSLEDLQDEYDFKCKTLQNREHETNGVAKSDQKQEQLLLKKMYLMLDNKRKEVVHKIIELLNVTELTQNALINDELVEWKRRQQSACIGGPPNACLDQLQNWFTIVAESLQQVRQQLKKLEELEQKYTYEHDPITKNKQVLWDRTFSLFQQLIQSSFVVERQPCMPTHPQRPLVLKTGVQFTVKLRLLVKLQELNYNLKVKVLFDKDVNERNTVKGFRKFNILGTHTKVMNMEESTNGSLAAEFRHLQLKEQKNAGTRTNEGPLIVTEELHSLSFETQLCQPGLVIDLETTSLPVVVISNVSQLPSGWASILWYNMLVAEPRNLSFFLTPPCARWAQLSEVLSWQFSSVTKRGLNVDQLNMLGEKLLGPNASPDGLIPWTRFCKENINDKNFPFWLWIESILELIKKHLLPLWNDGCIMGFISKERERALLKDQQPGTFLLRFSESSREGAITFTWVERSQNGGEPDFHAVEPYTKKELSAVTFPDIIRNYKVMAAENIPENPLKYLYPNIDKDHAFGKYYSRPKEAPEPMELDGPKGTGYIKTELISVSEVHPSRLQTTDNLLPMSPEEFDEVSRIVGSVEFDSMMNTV
In words: Inhibition of IFNgamma-induced STAT1 (unknown origin).

Test [2] is described as follows: Inhibition of IL6-induced STAT3 in human CAL33 cells.

For the molecule `Clc1ccc(C2=Nn3c(nnc3-c3[nH]nc4c3CCC4)SC2)cc1Cl`, in test [1], the negative-log IC50 (pIC50) (as a rule, the IC50 on a negative log10 scale, so that one unit is a factor of ten) is under 4.30.
Still for that read-out and setting: the same measure for `Clc1ccc(C2=Nn3c(nnc3-c3cc(-c4ccccc4)n[nH]3)SC2)cc1Cl`: under 4.30; for `Clc1ccc(C2=Nn3c(nnc3-c3[nH]nc4c3CCC4)SC2)cc1`: under 4.30.
Still for that read-out and setting: next, `Clc1cccc(C2=Nn3c(nnc3-c3[nH]nc4c3CCC4)SC2)c1`: under 4.30; `c1ccc(C2=Nn3c(nnc3-c3[nH]nc4c3CCC4)SC2)cc1`: under 4.30; `c1ccc(C2=Nn3c(nnc3-c3cc(-c4ccccc4)[nH]n3)SC2)cc1`: under 4.30.
As for `COc1ccc(C2=Nn3c(nnc3-c3cc(-c4ccccc4)n[nH]3)SC2)cc1`, the pIC50 in test [1] was under 4.30; in test [2] it was 5.43.
`c1cc(C2=Nn3c(nnc3-c3[nH]nc4c3CCC4)SC2)ccn1`: the negative-log IC50 (pIC50) in test [1] and in test [2] was under 4.30 each time.
Consider `c1ccc(-c2cc(-c3nnc4n3N=C(c3ccncc3)CS4)[nH]n2)cc1`, for which the pIC50 in test [1] and in test [2] was under 4.30 each time.
As for `Clc1ccc(C2=Nn3c(nnc3-c3[nH]nc4c3CCC4)SC2)s1`, the negative-log IC50 (pIC50) in test [1] is under 4.30.
For the molecule `Clc1ccc(C2=Nn3c(nnc3-c3cc(-c4ccccc4)n[nH]3)SC2)s1`, the negative-log IC50 (pIC50) in test [1] and in test [2] was under 4.30 each time.
As to `C1=Nn2c(nnc2-c2[nH]nc3c2CCC3)SC1`, the negative logarithm of the IC50 (pIC50) in test [1] and in test [2] was under 4.30 throughout.
Regarding `C1=Nn2c(nnc2-c2cc(-c3ccccc3)n[nH]2)SC1`, the negative logarithm of the IC50 (pIC50) in test [1] and in test [2] was under 4.30 in each case.
With `CC1=Nn2c(nnc2-c2[nH]nc3c2CCC3)SC1`, the pIC50 in test [1] and in test [2] was under 4.30 in each case.
On to `CC1=Nn2c(nnc2-c2cc(-c3ccccc3)[nH]n2)SC1`, for which the pIC50 in test [1] and in test [2] was under 4.30 each time.
On to `C1CCC(C2=Nn3c(nnc3-c3[nH]nc4c3CCC4)SC2)CC1`, for which the pIC50 in test [1] is under 4.30; in test [2], under 4.52.
With `c1ccc(-c2cc(-c3nnc4n3N=C(C3CCCCC3)CS4)[nH]n2)cc1`, the pIC50 in test [1] and in test [2] was under 4.30 throughout.
`COc1ccc(C2CSc3nnc(-c4[nH]nc5c4CCC5)n3N2)cc1` (stereo not drawn): the pIC50 in test [2] is under 4.30.
Same read-out and setting: next, `COc1ccc(C2CSc3nnc(-c4cc(-c5ccccc5)n[nH]4)n3N2C(C)=O)cc1` (stereo not drawn): under 4.30.
Same read-out and setting: the same measure for `Fc1ccc(-c2cc(-c3nnc4n3N=C(c3ccc(Cl)c(Cl)c3)CS4)[nH]n2)cc1`: 5.12; for `Clc1ccc(-c2cc(-c3nnc4n3N=C(c3ccc(Cl)c(Cl)c3)CS4)[nH]n2)cc1`: 4.84.
Still for that read-out and setting: next, `Clc1ccc(C2=Nn3c(nnc3-c3[nH]nc4c3CCCC4)SC2)cc1Cl`: 4.81.
`CC1Sc2nnc(-c3[nH]nc4c3CCC4)n2N=C1c1ccc(Cl)c(Cl)c1` (stereo not drawn) had a negative logarithm of the IC50 (pIC50) in test [1] of under 4.30.
The molecule `COc1ccc(C2=Nn3c(nnc3-c3[nH]nc4c3CCC4)SC2C)cc1` (stereo not drawn) gave a negative-log IC50 (pIC50) in test [1] of under 4.30.
The molecule `CC1Sc2nnc(-c3cc(-c4ccc(F)cc4)n[nH]3)n2N=C1c1ccccc1` (stereo not drawn) gave a negative-log IC50 (pIC50) in test [1] of under 4.52.
Still for that read-out and setting: next, `COc1ccc(C2=Nn3c(nnc3-c3cc(-c4ccc(F)cc4)n[nH]3)SC2C)cc1` (stereo not drawn): under 4.52.
Still for that read-out and setting: the same measure for `CC(C)C1Sc2nnc(-c3[nH]nc4c3CCC4)n2N=C1c1ccc(Cl)c(Cl)c1` (stereo not drawn): under 4.30; for `COc1ccc(C2=Nn3c(nnc3-c3[nH]nc4c3CCC4)SC2C(C)C)cc1` (stereo not drawn): under 4.30.
The same measure, in the same setting: next, `CC(C)CC1Sc2nnc(-c3[nH]nc4c3CCC4)n2N=C1c1ccc(Cl)c(Cl)c1` (stereo not drawn): under 4.30; `COc1ccc(C2=Nn3c(nnc3-c3cc(-c4ccccc4)n[nH]3)SC2CC(C)C)cc1` (stereo not drawn): under 4.30; `Clc1ccc(C2=Nn3c(nnc3-c3[nH]nc4c3CCC4)SC2Cc2ccccc2)cc1Cl` (stereo not drawn): under 4.30.
Take `CC1(C)Sc2nnc(-c3[nH]nc4c3CCC4)n2N=C1c1ccc(Cl)c(Cl)c1`: the negative logarithm of the IC50 (pIC50) in test [1] was under 4.30.
On the same count and under the same terms, the same measure for `Clc1ccc(C2=Nn3c(nnc3-c3cc(-c4ccccc4)[nH]n3)SC2)cc1` [MLS000558549]: under 4.30.
